# Measurements from US20120070392A1, “COMPOSITION FOR INHIBITING ERYTHEMA CAUSED BY ULTRAVIOLET RADIATION CONTAINING A DIPEPTIDE AS ACTIVE INGREDIENT” (priority 2009, published 2012).
# Test system: PGE2 production
# Test: Inhibition of UVB-induced PGE2 production in cultured human keratinocytes (PGE2 assay kit, calibrated with MTT absorbance)
# Type: cell-based
# Conditions: not given
# Experimental: Human keratinocytes were seeded at a density of 1×10^5 cells/well to 6-well plates containing 2 mL of KGM(keratinocyte growth medium, Clonetics, San Diego, Calif., USA) per well and cultured overnight. Then, the medium was replaced with KBM(keratinocyte basal medium) supplemented with 0.1% BSA(bovine serum albumin) and the cells were cultured for an additional 24 hours. Subsequently, the cells were pre-treated for an additional 24 hours with 2 mL of the same medium containing 10 μg/ml of each of the dipeptides listed in Table 1. […] The pre-treated medium was transferred to new 24 well plates and 1 mL of DPBS(Dulbecco's phosphate buffered saline) was added to the cells in each well. During UV irradiation, the transferred medium was stored in a cell incubator. […] At this time, the control was covered with aluminum foil. After the removal of DPBS, the transferred medium was returned to each well. The cells were further cultured for 24 hours, after which 1 mL of the medium was transferred to microcentrifuge tubes. […] The supernatants were then removed and the formazan crystals were solubilized in 1 ml of DMSO(dimethylsulfoxide). One hundred μL of the solution was transferred to each well of 96-well plates and an optical density was determined at 540 nm using an ELISA(enzyme-linked immunosorbent assay) reader. […] The concentration of PGE2 was determined using a PGE2 Assay Kit(KGE004, R&D Systems, Inc., Minneapolis, Minn., USA) according to the manufacturer's instruction. […] After removal of the reaction, the wells were washed five times with 400 μL of wash buffer. To each well was added 200 μL of a substrate solution, followed by incubation for 20 30 min. The reaction was terminated with 50 μL of a stop solution per well before determining absorbance at 450 nm on an ELISA reader. The PGE2 concentration of each sample was calculated from the standard graph and calibrated with the absorbance obtained in the MTT assay to determine their inhibitory activity against PGE2 production.
row,Compound,% Inhibition against PGE2 Production [%]
1,"NCC(=O)O.N[C@@H](CC(=O)O)C(=O)O [DG, aspartic acid-glycine]",79.7
2,"NCC(=O)O.N[C@@H](CCC(=O)O)C(=O)O [EG, glutamic acid-glycine]",90.9
3,"NCC(=O)O.N[C@@H](CC(=O)O)C(=O)O [GD, glycine-aspartic acid]",23.8
4,"NCC(=O)O.NCCCC[C@H](N)C(=O)O [GK, glycine-lysine]",87.0
5,"NCC(=O)O.O=C(O)[C@@H]1CCCN1 [PG, proline-glycine]",80.7
6,"N=C(N)NCCC[C@H](N)C(=O)O.NCC(=O)O [RG, arginine-glycine]",82.8
7,alanine-asparagine,58.8
8,alanine-histidine [AH],64.7
9,alanine-proline [AP],26.3
10,alanine-tyrosine [AY],31.8
11,alanine-valine [AV],44.8
12,arginine-methionine [RM],84.7
13,arginine-proline [RP],88.7
14,arginine-tyrosine [RY],67.3
15,asparagine-cysteine [NC],83.1
16,asparagine-histidine [NH],65.8
17,asparagine-methionine [NM],89.5
18,asparagine-proline [NP],70.6

row,Compound,% Inhibition against PGE2 Production [%]
1,asparagine-serine [NS],31.9
2,asparagine-threonine [NT],57.2
3,asparagine-tyrosine [NY],58.1
4,asparagine-valine [NV],80.4
5,aspartic acid-asparagine [DN],85.6
6,aspartic acid-histidine [DH],59.2
7,aspartic acid-methionine [DM],63.1
8,aspartic acid-proline [DP],89.3
9,cysteine-asparagine [CN],92.0
10,cysteine-methionine [CM],69.7
11,glutamic acid-histidine [EH],75.4
12,glutamic acid-methionine [EM],58.4
13,glutamic acid-proline [EP],80.8
14,glutamic acid-tyrosine [EY],75.9
15,glutamine-histidine [QH],14.8
16,glutamine-tyrosine [QY],54.6
17,glycine-glycine [GG],26.1

# Same assay, conditions: 10 μg/ml dipeptide, 24 h pre-treatment, human keratinocytes, UVB 100 mJ/cm^2, medium assayed 24 h after irradiation; 0% or lower expressed as zero; 10% or more regarded as effective
row,Compound,% Inhibition against PGE2 Production [%]
1,"NCC(=O)O.N[C@@H](Cc1c[nH]c2ccccc12)C(=O)O [WG, tryptophan-glycine]",91.3
2,alanine-alanine [AA],78.4
3,asparagine-alanine [NA],42.0
4,glycine-alanine [GA],17.6
5,histidine-alanine [HA],44.1
6,histidine-histidine [HH],79.8

# Same assay, conditions: 10 μg/ml dipeptide, 24 h pre-treatment, human keratinocytes, UVB 100 mJ/cm^2, medium assayed 24 h after irradiation; […]; 10% or more regarded as effective
row,Compound,% Inhibition against PGE2 Production [%]
1,"NC(=O)CC(N)C(=O)O (stereo not shown) [NN, asparagine-asparagine]",48.3
2,alanine-arginine,95.7
3,alanine-aspartic acid [AD],58.3
4,alanine-cysteine [AC],70.8
5,alanine-glutamic acid [AE],74.6
6,alanine-glutamine [AQ],69.0
7,alanine-isoleucine [AI],60.1
8,alanine-leucine,48.9
9,alanine-lysine [AK],90.3
10,alanine-phenylalanine [AF],84.2
11,alanine-serine [AS],72.5
12,arginine-arginine [RR],90.5
13,arginine-asparagine [RN],10.7
14,arginine-aspartic acid [RD],24.1
15,arginine-cysteine [RC],95.1
16,arginine-glutamic acid [RE],58.8
17,arginine-leucine [RL],30.4
18,arginine-lysine [RK],88.2
19,arginine-serine [RS],50.3
20,arginine-threonine [RT],27.5
21,arginine-tryptophan [RW],34.9
22,asparagine-arginine [NR],72.8

row,Compound,% Inhibition against PGE2 Production [%]
1,asparagine-glutamic acid,14.5
2,asparagine-glutamine [NQ],70.1
3,asparagine-leucine [NL],72.6
4,asparagine-phenylalanine [NF],88.2
5,aspartic acid-alanine [DA],94.1
6,aspartic acid-aspartic acid [DD],64.2
7,aspartic acid-cysteine [DC],77.6
8,aspartic acid-glutamic acid [DE],58.5
9,aspartic acid-glutamine [DQ],52.4
10,aspartic acid-isoleucine [DI],25.9
11,aspartic acid-leucine [DL],75.8
12,aspartic acid-lysine [DK],76.6
13,aspartic acid-phenylalanine [DF],83.4
14,aspartic acid-serine [DS],84.0
15,aspartic acid-threonine [DT],95.8
16,aspartic acid-tryptophan [DW],67.3
17,aspartic acid-valine [DV],30.7
18,cysteine-glutamic acid [CE],54.4
19,cysteine-glutamine [CQ],93.9
20,cysteine-serine [CS],53.1
21,cysteine-tryptophan [CW],71.0
22,glutamic acid-alanine [EA],55.3

row,Compound,% Inhibition against PGE2 Production [%]
1,glutamic acid-arginine [ER],72.8
2,glutamic acid-aspartic acid [ED],85.1
3,glutamic acid-glutamic acid [EE],86.5
4,glutamic acid-glutamine [EQ],79.6
5,glutamic acid-isoleucine [EI],74.0
6,glutamic acid-leucine [EL],56.2
7,glutamic acid-lysine [EK],76.5
8,glutamic acid-phenylalanine [EF],13.3
9,glutamic acid-serine [ES],48.8
10,glutamic acid-threonine [ET],67.9
11,glutamic acid-valine [EV],86.4
12,glutamine-arginine [QR],33.6
13,glutamine-asparagine [QN],13.9
14,glutamine-aspartic acid [QD],66.0
15,glutamine-glutamine [QQ],92.5
16,glutamine-lysine [QK],25.9
17,glutamine-phenylalanine [QF],19.0
18,glutamine-serine [QS],28.2
19,glutamine-threonine [QT],25.0
20,glutamine-tryptophan [QW],42.8
21,glutamine-valine [QV],59.7
